Test results as given in patent US9738902B2, “Modified PYR/PYL receptors activated by ligands” (priority 2013, dated 2017).

Columns and labels:
PYR1 K59R F108A S122G = target: T1, PYR1 K59R F108A S122G (Arabidopsis thaliana, UniProt O49686, F108A/K59R/S122G); assay: Y2H Combinatorial Mutagenesis Screen I (HAB1, X-gal); format: cell-based
T1 construct: expressed in transfected cells; host or cells: S. cerevisiae Y190 two-hybrid reporter strain
Description: (§1) This screening approach yielded mutants at ligand contacting residues that alter sensitivity to specific ligands. We reasoned that receptor sensitivity could be improved by systematically constructing combinations of the best mutant variants identified in the first round of screening. To test this, we constructed mutant combinations using the strongest mutations identified for mandipropamid, benzothiadiazole, benoxacor or fludioxonil sensitivity. The mutations selected for combinatorial mutagenesis are listed in bold type in Table 1; The mutant combinations were constructed using the QuickChange Lightning Multi Site-Directed PCR Mutagenesis kit (Agilent, USA) using pBD-PYR1^K59R template DNA and mutagenic primers, essentially as previously described (Mosquna et al., 2011). The mutant combinations were sequence validated, introduced into the pACT-HAB1 Y190 reporter strain and then tested for responsiveness to a range of compound concentrations (100, 50, 25, 10, 1, 0.2, 0.1 or 0 μM each test compound). These efforts yielded double mutant receptor variants with improved sensitivity for the 4 compound/receptor pairs examined (see entries labeled “Combinatorial Mutagenesis Screen I” in Table 1).
The preceding efforts identified PYR1^K59R,F108A,S122G, which is responsive to mandipropamid concentrations as low as 1 μM. […]

PYR1 K59R F108Q S122G = target: T2, PYR1 K59R F108Q S122G (Arabidopsis thaliana, UniProt O49686, F108Q/K59R/S122G); assay: as above; format: cell-based
T2 construct: expressed in transfected cells; host or cells: S. cerevisiae Y190 two-hybrid reporter strain
Description: as §1

PYR1 K59R F108I S122G = target: T3, PYR1 K59R F108I S122G (Arabidopsis thaliana, UniProt O49686, F108I/K59R/S122G); assay: as above; format: cell-based
T3 construct: expressed in transfected cells; host or cells: S. cerevisiae Y190 two-hybrid reporter strain
Description: as §1

[1] = target: T4, GST-HAB1 in the presence of PYR1^MANDI (Arabidopsis thaliana, UniProt O49686, F108A/F159L/K59R/S122G/V81I/Y58H); assay: PP2C activity assay (pNPP); format: biochemical; details: PYR1^MANDI 1200 nM, PP2C 600 nM
T4 construct: 6×-His (N); made in house; host or cells: BL21[DE3]pLysS E. coli (receptor)
Description: (§2) One possibility in any functional screen conducted in a heterologous organism such as S. cerevisiae is that mutants identified may only work in the context of the heterologous expression system. We therefore examined whether recombinant PYR1^K59R,F108A,S122G and PYR1^MANDI proteins inhibit PP2C activity in vitro, as is well documented for wild type PYR1 in response to ABA (Park et al., 2009). Both receptors were cloned into pET28 to generate 6×-His (SEQ ID NO:109) tagged receptors. These were expressed in BL21[DE3]pLysS E. coli host cells at 18° C. overnight. 6×-His-fusion proteins were purified from sonicated lysates using Ni-NTA agarose (Qiagen, USA), according to the manufacturer's instructions. For PP2C assays, recombinant GST-HAB1 and GST-ABI2 were expressed and purified as described previously (Park et al., 2009) and PP2C activity assayed conducted using the colorimetric phosphatase substrate para-nitrophenyl phosphate (pNPP) as previously described (Park et al., 2009). PP2C assays were conducted using 600 nM of PP2C and 1200 nM recombinant receptors. […] We note that these mutant receptors cannot respond to ABA due to the K59R mutation they contain, which abolishes ABA responsiveness.

[2] = target: T5, GST-HAB1 in the presence of PYR1^K59R,F108A,S122G (Arabidopsis thaliana, UniProt O49686, F108A/K59R/S122G); assay: PP2C activity assay (pNPP); format: biochemical; details: PYR1^K59R,F108A,S122G 1200 nM, PP2C 600 nM
T5 construct: 6x-His; made in house; host or cells: E. coli BL21[DE3]pLysS (receptor)
Description: as §2

[3] = target: T6, GST-ABI2 in the presence of PYR1^MANDI (Arabidopsis thaliana, UniProt O49686, F108A/F159L/K59R/S122G/V81I/Y58H); assay: PP2C activity assay (pNPP); format: biochemical; details: PYR1^MANDI 1200 nM, PP2C 600 nM
T6 construct: 6×-His (N); made in house; host or cells: BL21[DE3]pLysS E. coli (receptor)
Description: as §2

[4] = target: T7, GST-ABI2 in the presence of PYR1^K59R,F108A,S122G (Arabidopsis thaliana, UniProt O49686, F108A/K59R/S122G); assay: PP2C activity assay (pNPP); format: biochemical; details: PYR1^K59R,F108A,S122G 1200 nM, PP2C 600 nM
T7 construct: 6x-His; made in house; host or cells: E. coli BL21[DE3]pLysS (receptor)
Description: as §2

T3 sequence (O49686 whole entry K59R/F108I/S122G): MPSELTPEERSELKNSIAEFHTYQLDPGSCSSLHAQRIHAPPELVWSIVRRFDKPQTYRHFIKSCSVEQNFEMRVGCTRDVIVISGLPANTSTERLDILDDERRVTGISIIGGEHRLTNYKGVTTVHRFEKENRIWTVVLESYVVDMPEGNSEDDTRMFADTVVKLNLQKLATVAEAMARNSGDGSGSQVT
T3 sequence (Q9CAJ0 23-511 partner): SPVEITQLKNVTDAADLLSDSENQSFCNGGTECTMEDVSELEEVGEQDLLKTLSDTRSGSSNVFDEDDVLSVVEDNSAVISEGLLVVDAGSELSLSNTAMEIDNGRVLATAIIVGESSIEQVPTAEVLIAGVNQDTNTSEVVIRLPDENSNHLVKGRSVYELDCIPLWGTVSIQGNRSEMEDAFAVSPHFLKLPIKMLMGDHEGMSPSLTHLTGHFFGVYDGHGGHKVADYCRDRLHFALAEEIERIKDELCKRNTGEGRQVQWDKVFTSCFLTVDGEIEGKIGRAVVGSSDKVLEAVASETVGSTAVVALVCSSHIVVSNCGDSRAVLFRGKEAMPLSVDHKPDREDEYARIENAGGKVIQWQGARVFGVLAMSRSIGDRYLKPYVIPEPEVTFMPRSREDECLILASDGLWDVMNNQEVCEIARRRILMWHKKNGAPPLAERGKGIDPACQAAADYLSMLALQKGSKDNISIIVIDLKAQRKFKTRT
T4 sequence (O49686 whole entry Y58H/K59R/V81I/F108A/S122G/F159L): as the sequence (O49686 whole entry K59R/F108I/S122G) above, with Y58H, V81I, I108A, F159L counted along it
T4 sequence (Q9CAJ0 23-511 partner): as the sequence (Q9CAJ0 23-511 partner) above
T6 sequence (O49686 whole entry Y58H/K59R/V81I/F108A/S122G/F159L): as the sequence (O49686 whole entry K59R/F108I/S122G) above, with Y58H, V81I, I108A, F159L counted along it
T6 sequence (O04719 whole entry partner): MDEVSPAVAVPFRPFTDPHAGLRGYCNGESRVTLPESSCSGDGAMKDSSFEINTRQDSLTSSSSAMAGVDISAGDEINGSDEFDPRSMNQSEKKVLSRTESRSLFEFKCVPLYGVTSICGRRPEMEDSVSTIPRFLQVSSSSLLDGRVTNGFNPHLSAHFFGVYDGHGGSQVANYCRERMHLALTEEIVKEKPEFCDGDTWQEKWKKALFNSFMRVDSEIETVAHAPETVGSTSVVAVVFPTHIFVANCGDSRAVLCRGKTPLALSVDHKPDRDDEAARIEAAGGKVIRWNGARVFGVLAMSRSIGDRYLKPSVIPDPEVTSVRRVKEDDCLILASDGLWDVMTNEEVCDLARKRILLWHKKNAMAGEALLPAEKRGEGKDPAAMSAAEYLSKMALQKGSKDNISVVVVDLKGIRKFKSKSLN
T7 sequence (O49686 whole entry K59R/F108A/S122G): as the sequence (O49686 whole entry K59R/F108I/S122G) above, with I108A counted along it
T7 sequence (O04719 whole entry partner): as the sequence (O04719 whole entry partner) above
T5 sequence (O49686 whole entry K59R/F108A/S122G): as the sequence (O49686 whole entry K59R/F108I/S122G) above, with I108A counted along it
T5 sequence (Q9CAJ0 23-511 partner): as the sequence (Q9CAJ0 23-511 partner) above
T1 sequence (Q9CAJ0 23-511): as the sequence (Q9CAJ0 23-511 partner) above
T1 sequence (O49686 whole entry K59R/F108A/S122G): as the sequence (O49686 whole entry K59R/F108I/S122G) above, with I108A counted along it
T2 sequence (O49686 whole entry K59R/F108Q/S122G): as the sequence (O49686 whole entry K59R/F108I/S122G) above, with I108Q counted along it
T2 sequence (Q9CAJ0 23-511 partner): as the sequence (Q9CAJ0 23-511 partner) above

C#CCOc1ccc(CCNC(=O)C(OCC#C)c2ccc(Cl)cc2)cc1OC (stereo not shown) [Mandipropamid, mandipropamid]
Threshold (PYR1 K59R F108A S122G): 1 µM | Threshold (PYR1 K59R F108Q S122G): 10 µM | Threshold (PYR1 K59R F108I S122G): 10 µM | inhibition of HAB1 PP2C activity [1]: saturable inhibition | inhibition of HAB1 PP2C activity [2]: saturable inhibition | inhibition of ABI2 PP2C activity [3]: saturable inhibition | inhibition of ABI2 PP2C activity [4]: saturable inhibition
